According to patent US20140088192A1, “SUBCUTANEOUSLY INFUSIBLE LEVODOPA PRODRUG COMPOSITIONS AND METHODS OF INFUSION” (SynAgile Corporation, priority 2010, published 2014):

Tested on: volunteer
Experiment: Intramuscular / subcutaneous infusion of LDEE.HCl in human volunteers, local tolerability
Format: in vivo
Method: The flow rate was 0.6 mL/h. […] The protrusion disappeared after 2 days.
A healthy volunteer took one Lodosyn (carbidopa), 25 mg pill, at each of the morning, midday and evening of the day preceding the infusion, and in the morning, midday and evening of the day of the infusion. After adjusting the pH of a stored solution of pH 2.4 and 2.5 mL volume of 2.9 M LDEE.HCl by adding to it 0.16 mL of 1.5 M trisodium citrate solution to about pH 4.6±0.1, a 2.7 M LDEE.HCl solution was obtained. Using a Medtronic Minimed Paradigm 723, a Medtronic Minimed Silhouette, 43 inches, 17 mm cannula infusion set, a Medtronic Minimed Sil-Serter infusion set insertion system, the volunteer infused 0.67 mL of the 2.7 M LDEE.HCl solution into their abdomen over a period of 9 hours. The infusion site was 7-8 cm below the ribs. The initial 4 hr infusion was at a rate of 0.062 mL/hr (37.5 mg of LDEE/hr), followed by 0.082 mL/hr (50 mg of LDEE/hr) in the next 5 hours. The total infused volume contained 406 mg LDEE, the equivalent to 356 mg L-DOPA.
A healthy volunteer took one Lodosyn (carbidopa), 25 mg pill, at each of the evening preceding the infusion, and in the morning, midday and evening of the day of the infusion. After adjusting the pH to about pH 4.7±0.3 of a stored solution of pH 2.4 and 2.5 mL volume of 2.9 M LDEE.HCl by adding 0.16 mL of 1.5 M trisodium citrate solution, a 2.7 M LDEE.HCl solution was obtained. Using a Medtronic Minimed Paradigm 723, a Medtronic Minimed Silhouette, 43 inches, 17 mm cannula infusion set, and a Medtronic Minimed Sil-Serter infusion set insertion system, the a volunteer infused 0.67 mL of the 2.7 M LDEE.HCl solution into the frequently exercised and occasionally massaged outside of the upper arm over a period of 9 hours. The initial 4 hr infusion was at a rate of 0.062 mL/hr (37.5 mg of LDEE/hr), followed by 0.082 mL/hr (50 mg of LDEE/hr) in the next 5 hours. The total infused volume contained 400 mg LDEE, the equivalent to 351 mg L-DOPA.
A healthy volunteer took one Lodosyn (carbidopa), 25 mg pill, at each of the evening of the day preceding the infusion, and in the morning, mid-day and evening of the day of the infusion. 1 mL of the 2.9 M LDEE.HCl stored solution of pH 2.4, 0.04 mL of a 1.5 M trisodium citrate solution and 2 mL sterile water were syringed into the reservoir of a Medtronic Minimed Paradigm 723 pump. This pump and a Medtronic Minimed Silhouette, 43 inches, 17 mm cannula infusion set inserted with a Medtronic Minimed Sil-Serter infusion set insertion system were used. The volunteer infused 1.85 mL, or 396 mg LDEE (equivalent to 347 mg L-DOPA) of the now 3× diluted 0.95 M LDEE solution into their upper arm over a period of 9 hours at two rates: First near 37.5 mg/hr (0.175 mL/hr) for 4 hours then near 50 mg/hr (0.233 mL/hr) for 5 hours. During the course of the infusion the volunteer periodically exercised their arm and gently massaged the infusion site.
A healthy volunteer took one Lodosyn (carbidopa), 25 mg pill, at each of the evening of the day preceding the infusion, and in the morning, mid-day and evening of the day of the infusion. The reservoir of a Medtronic Minimed Paradigm 723 pump was primed (to assure that all of the 3 mL in the reservoir will be infused) then the reservoir was filled with 0.6 mL of the 2.9 M LDEE.HCl stored solution of pH 2.4, 0.024 mL of a 1.5 M trisodium citrate solution and 2.4 mL sterile water by syringing. The pump, a Medtronic Minimed Silhouette, 43 inches, 17 mm cannula infusion set, and a Medtronic Minimed Sil-Serter infusion set insertion system were used. The volunteer infused 3 mL, or 400 mg LDEE (equivalent to 350 mg L-DOPA) of the now 5× diluted (i.e. 0.58 M) LDEE solution into their upper arm over a period of 9 hours at a flow rate of 0.33 mL/hr. […] The infusion ended at 7:30 pm. […]

[1] = intramuscular, right upper arm, about 0.45 mL of 2.3 M pH 4.5 over 45 min
[2] = s.c. abdomen, 0.67 mL of 2.7 M over 9 hours
[3] = s.c. exercised upper arm, 0.67 mL of 2.7 M over 9 hours
[4] = s.c. exercised upper arm, 1.85 mL of 0.95 M over 9 hours
[5] = s.c. upper arm, 3 mL of 0.58 M over 9 hours
[6] = s.c. upper arm, 10.7 mL of 0.48 M over 18 hours

Compound: CCOC(=O)[C@@H](N)Cc1ccc(O)c(O)c1.Cl [LDEE.HCl, LDEE Hydrochloride]
- time to disappearance of the protrusion (intramuscular, about 0.45 mL of 2.3 M pH 4.5): 2 days
- local reaction after infusion [1]: small nodule which spread after 4 hours into an about 1 mm high, 2-3 cm radius protrusion
- pain, inflammation, color change, sensitivity at the site [1]: no pain, inflammation, color change or sensitivity
- pain or irritation (s.c. abdomen, 0.24 mL of 2.3 M pH 4.5 over about 90 min in 8 boluses): felt no pain or irritation during or after the infusion
- course of induration after 24 hours [2]: became diffuse and partly, but not completely, subsided
- other adverse events [2]: no other adverse events
- swelling / induration at infusion site [2]: Mild swelling was observed and an induration of approximately 2.5 cm diameter developed
- pain or redness (s.c. abdomen, 0.67 mL of 2.7 M pH about 4.6 over 9 hours, oral carbidopa): virtually no pain or redness
- course of swelling [3]: disappeared after a week
- other adverse events [3]: no other adverse events of any kind
- swelling at infusion site at end of infusion [3]: about 7 cm long elongated mildly swollen region
- pain or redness (s.c. exercised upper arm, 0.67 mL of 2.7 M pH about 4.7 over 9 hours, oral carbidopa): virtually no pain or redness
- course of swelling [4]: disappeared gradually in about three days
- other adverse events [4]: no other adverse events
- swelling at infusion site at end of infusion [4]: very slightly swollen region of about 4 cm diameter
- pain or redness (s.c. exercised upper arm, 1.85 mL of 0.95 M over 9 hours, oral carbidopa): no pain or redness
- adverse events [5]: no adverse events
- local findings at end of infusion [5]: very slight reddening of a 2×4 cm skin area and a very slightly harder than normal 2 cm diameter zone under the skin
- site on the following morning [5]: the skin and infused tissue appeared normal
- pain during infusion (s.c. upper arm, 3 mL of 0.58 M over 9 hours, oral carbidopa): felt no pain during the infusion
- adverse events [6]: no adverse events
- swelling [6]: swelling most of which subsided within 8 hours
- time after which swelling was no longer visible [6]: 12 h
- pain, reddening, inflammation at end of infusion (s.c. upper arm, 10.7 mL of 0.48 M pH 4.8-5.0 (5.1 millimoles) over 18 hours, oral carbidopa): no pain, reddening or inflammation
